The results in this text go back to article PMC10056899, “Neuroprotective and Antiherpetic Properties of Polyphenolic Compounds from Maackia amurensis Heartwood” (Molecules, 2023).

Molecules are shown by their SMILES. Several values for one entry are separate records, joined by “and”; a condition that tells them apart may be missing. Identical values can stand only once.

Series [1] is described as follows: Ferric reducing antioxidant power (FRAP) assay. The following applies: 4 min, pH 3.6. The method, then: The FRAP assay was carried out as described in [41]. We prepared FRAP reagent by mixing 2.5 mL of TPTZ (2,4,6-tris(2-pyridyl)-s-triazine) solution (10 mM) in 40 mM HCl and […] of FeCl3 solution (20 mM) in acetate buffer solution (300 mM, pH 3.6). Then, we added stilbenes 1–6 to 3 mL of FRAP reagent at concentrations from 1 to 34 µM. The mixture was kept in the dark at room temperature for 4 min. Then, we measured the absorbance at 595 nm using a Shimadzu UV 1240 spectrophotometer. Equation (2) was used to calculate the FRAP values of stilbenes 1–6:(2) FRAP=CFe/Cx, where: • CFe is the concentration of Fe^2+ (µM) formed in the reaction; • Cx is the concentration of polyphenolic compounds in the reacting mixture.
The concentration of Fe^2+ (µM) formed in the reaction was determined using the calibration curve obtained for different concentrations of FeSO4·7H2O.

Series [2] in a line: Cytotoxicity against Vero cells (MTT assay). The series is classed as cell-based. The following applies: African green monkey (Chlorocebus sp.). On the procedure: The HSV-1 strain L2 and Vero cell culture (kidney epithelial cells of the African green monkey Chlorocebus sp.) were obtained from the N.F. Gamaleya Federal Research Centre for Epidemiology and Microbiology (Moscow, Russia). HSV-1 was grown in Vero cells, using Dulbecco′s Modified Eagle′s Medium (DMEM, Biolot, St. Petersburg, Russia) supplemented with 10% fetal bovine serum (FBS, Biolot, St. Petersburg, Russia) and 100 U/mL of gentamycin (Dalkhimpharm, Khabarovsk, Russia), at 37 °C in a CO2 incubator. In the maintenance medium, the FBS concentration was decreased to 1%.
The tested compounds were dissolved in DMSO (Sigma, St. Louis, MO, USA) at a concentration 10 mg/mL and stored at −20 °C. For cytotoxicity and anti-HSV-1 activity determination, the stock solutions were diluted with DMEM so that the final concentration of DMSO was 0.5%.
The cytotoxicity evaluation of the studied compounds was performed using the MTT assay, as described previously. In brief, confluent Vero cells in 96-well microplates (1 × 10^4 cells/well) were incubated with tested compounds at various concentrations (1–500 μg/mL) at 37 °C for 48 h (5% CO2). Untreated cells were used as controls. Then, MTT solution (methylthiazolyltetrazolium bromide, Sigma, St. Louis, MO, USA) was added to cells at a concentration of 5 mg/mL and the cells were incubated at 37 °C for 2 h. After dissolution of formazan crystals, optical densities were read at 540 nm (Labsystems Multiskan RC, Vantaa, Finland). […] [42]. Experiments were performed in triplicate and repeated three times.

A short description of series [3]: DPPH radical scavenging assay. The following applies: 20 min; for IC50: read-out: DPPH Scavenging Effect IC50. On the procedure: The DPPH (2,2-diphenyl-1-picrylhydrazyl) scavenging effect of polyphenolic compounds 1-6 from M. amurensis heartwood was evaluated as described previously in [40]. Stilbenes were added to DPPH solution in MeOH (10^−4 M) at a concentration range from 1 to 34 µM. The mixture was kept in the dark at room temperature for 20 min. Then, we measured the absorbance at 517 nm using a Shimadzu UV 1240 spectrophotometer (Shimadzu, Kyoto, Japan). The DPPH radical-scavenging effect (%) of the stilbenes was calculated using Equation (1): (1) DPPH scavenging effect, %=A0−Ax/A0×100, where: • A0 is the absorbance of DPPH solution without polyphenolic compounds (blank sample); • Ax is the absorbance of DPPH solution in the presence of different concentrations of polyphenolic compounds.
Quercetin and ascorbic acid were used as reference compounds. All experiments were performed in triplicate. The half maximal inhibitory concentration (IC50) for polyphenolic compounds was calculated by plotting the DPPH scavenging effect (%) against the concentrations of polyphenolic compounds. IC50 values are given as the mean ± SEM.
A general note: DPPH is a stable violet radical that fades when it is reduced.

The subject of series [4] is HSV-1. Description: Anti-HSV-1 activity, HSV-1 DNA level by real-time PCR (RT-PCR). The series is classed as cell-based, HSV-1 strain L2. The settings on record: 5 µg/mL, simultaneous treatment, 48 h; for 1, 4 and Maxar given on average. The method, then:
The anti-HSV-1 activity of the polyphenolic compounds from M. amurensis was also studied using the real-time PCR (RT-PCR) technique (Figure 5 and Table S69, Supplementary Data). Vero cells were simultaneously infected with 100 TCD50/mL HSV-1 and treated with polyphenolic compounds 1–6 at concentrations of 50 and 5 μg/mL. After 48 h of cell incubation, viral DNA was extracted from the supernatants, and the relative level of HSV-1 DNA was determined using RT-PCR. The effect of stilbenes on the relative level of viral DNA was assessed by 2^−ΔCt method and reported as fold reduction relative to virus control, to which the value of 1.0 was assigned.
For the viral DNA extraction assay, Vero cells grown in 96-well plates were infected with HSV-1 and simultaneously treated with polyphenolic compounds and incubated at 37 °C in a CO2-incubator for 48 h. After incubation, the culture media and the cells scraped from the plate were transferred to centrifuge tubes. The cell debris was removed by centrifugation at 300× g for 10 min. Then, supernatant was collected and kept at −20 °C. The HSV-1 DNA was extracted from supernatant by using the AmpliSens® DNA-sorb-AM (K1-12-100-CE) nucleic acid extraction kit (Moscow, Russia) according to the manufacturer′s instructions. […]
The DNA HSV was detected in the obtained DNA samples using the AmpliSens® HSV I, II-FRT-100F PCR kit (Moscow, Russia) on a real-time PCR instrument Rotor-Gene Q (Qiagen, Hilden, Nordrhein-Westfalen, Germany) according to the manufacturer′s instructions. […] In the real-time PCR, the amplified product is detected with the use of fluorescent dyes. […] The threshold cycle number, Ct, was measured as the PCR cycle, where the amount of amplified target reached the threshold value. The reduction in the HSV-1 DNA levels in culture supernatants was assessed by the change in the threshold cycle (ΔCt) (Equation (4)):(4) ΔCt=Cttv−Ctcv where: • Cttv is the average Ct value for the infected samples after treatment with polyphenolic compounds; • Ctcv corresponds to the average Ct value for the virus control. […]
A general note: Quantitative PCR measures a nucleic acid by following its amplification.

By CC50 is commonly meant the concentration giving 50% cytotoxicity. In general, IC50 refers to the concentration that gives 50% inhibition. `COc1ccc([C@@H]2COc3cc(O)ccc3[C@H]2c2c(O)cc(O)cc2/C=C/c2ccc(O)c(O)c2)c(O)c1` [Compound 1]: in series [1], the “FRAP CFe2+(µM)/Cpolyphenolic compound (µM)” value is recorded as 12.36 ± 1.38 CFe2+(µM)/Cpolyphenolic compound (µM) and the “FRAP CFe2+(µM)/Cpolyphenolic compound (μkg/mL)” value is recorded as 24.04 ± 2.68 CFe2+(µM)/Cpolyphenolic compound (μkg/mL). In addition, the CC50 at 48 h in series [2] is 162 µg/mL and 316 µM. Moreover, in series [3], the “DPPH Scavenging Effect IC50” value is given as 2.25 ± 0.25 µg and the IC50 amounted to 4.3 ± 0.5 µM. The “Reduction of relative level of HSV-1 DNA relative to virus control” value in series [4] is recorded as around 1.3 log10.
On to `Oc1ccc(/C=C/c2cc(O)cc3c2[C@H](c2cc(O)cc(O)c2)[C@@H](c2ccc(O)c(O)c2)O3)cc1` [Compound 4, scirpusin A], for which, in series [1], the “FRAP CFe2+(µM)/Cpolyphenolic compound (µM)” value is 11.44 ± 1.41 CFe2+(µM)/Cpolyphenolic compound (µM) and the “FRAP CFe2+(µM)/Cpolyphenolic compound (μkg/mL)” value is on record as 24.34 ± 3.00 CFe2+(µM)/Cpolyphenolic compound (μkg/mL). In series [2], the CC50 at 48 h is 199 µg/mL and 424 µM. Moreover, in series [3], the “DPPH Scavenging Effect IC50” value is given as 1.50 ± 0.19 µg and the IC50 worked out at 3.2 ± 0.4 µM. For the same molecule, in series [4], the “Reduction of relative level of HSV-1 DNA relative to virus control” value is around 1.3 log10.
